# pEC50, pIC50: −log10 of the molar value. Where a name gives a salt, the structure may show the parent alone.
# Columns and labels:
# [1] = tested on: cGMP PDE purified from human colon HT-29 cultured tumor cells; assay: cGMP PDE inhibition assay; assay type: biochemical; conditions: for pIC50: read-out: IC50 for inhibition of cGMP PDE, HT-29 cell enzyme
# [2] = tested on: HCT-15; assay: Growth inhibition, neutral red assay, HCT-15; assay type: cell-based, human; conditions: free base, five days
# Method: (§1) Compound I's activity is not confined to activity against colon cancer cell lines or animal models of colon cancer. It has a broad range of anti-neoplastic effects in various neoplastic cell lines. Various types of human cancer cell lines were propagated under sterile conditions in RPMI 1640 medium with 10% fetal bovine serum, 2 mM L-glutamine and sodium bicarbonate. To determine growth inhibitory effects of Compound I, cells were seeded in 96-well plates at a density of 1000 cells per well. Twenty-four hours after plating, the cells were dosed with various concentrations of the free base of Compound I solubilized in DMSO (final concentration 0.1%). The effect of the drug on tumor cell growth was determined using the neutral red cytotoxicity assay following five days of continuous treatment. Neutral red is a dye that is selectively taken up by viable cells by an ATP-dependent transport mechanism.
# [3] = tested on: PrEC primary prostate epithelial cell cultures; assay: Histone-associated DNA fragmentation in normal prostate epithelial cells; assay type: cell-based; conditions: 50 μM, up to 4 days
# Method: The androgen-sensitive prostate tumor cell line, LNCaP (from ATCC (Rockville, Md.)) was propogated under standard conditions using […] medium containing 5% fetal calve serum and 2 mM glutamine. Primary prostate epithelial cell cultures (PrEC) derived from normal prostate (from Clonetics Inc. (San Diego, Calif.)) were grown under the same conditions as the tumor cell line except a serum-free medium optimized for the growth of such cultures was used (Clonetics Inc). For the experiments, LNCaP or PrEC cells were seeded in 96 well plates at a density of 10,000 cells per well. After 24 hours, the cells were treated with either vehicle (0.1% DMSO) or 50 μM Compound I (free base) solubilized in DMSO. After various drug treatment times (4, 24, 48, 72, or 99 hours) the cells were lysed and processed for measurement of histone-associated DNA as an indicator of apoptotic cell death (see, Piazza et al., Cancer Research 57: 2452-2459, 1997).
# This is in marked contrast to conventional chemotherapeutics that induce apoptosis or necrosis in rapidly growing normal and neoplastic cells alike.
# [4] = tested on: SW-480 colon adenocarcinoma cells; assay: Apoptosis fold induction protocol (DNA fragmentation ELISA); conditions: Homo sapiens
# [5] = dog, in vivo
# [6] = tested on: NCI-H460; assay: Growth inhibition, neutral red assay, NCI-H460; assay type: cell-based, human; conditions: free base, five days
# Method: as §1
# [7] = target: T1, purified cyclooxygenase (Type 1, COX-I) from ram seminal vesicles (Ovis aries, UniProt P05979); assay: COX inhibition assay, purified cyclooxygenase; assay type: biochemical; conditions: for inhibition at 100 µM: read-out: Cyclooxygenase inhibitory activity, % Inhibition at 100 μM
# T1 construct: using purified cyclooxygenase from ram seminal vesicles as described previously; tissue Cayman Chemical, Ann Arbor, Mich; (named in the general protocol only); host or cells: ram seminal vesicles
# T1 sequence (P05979 25-600): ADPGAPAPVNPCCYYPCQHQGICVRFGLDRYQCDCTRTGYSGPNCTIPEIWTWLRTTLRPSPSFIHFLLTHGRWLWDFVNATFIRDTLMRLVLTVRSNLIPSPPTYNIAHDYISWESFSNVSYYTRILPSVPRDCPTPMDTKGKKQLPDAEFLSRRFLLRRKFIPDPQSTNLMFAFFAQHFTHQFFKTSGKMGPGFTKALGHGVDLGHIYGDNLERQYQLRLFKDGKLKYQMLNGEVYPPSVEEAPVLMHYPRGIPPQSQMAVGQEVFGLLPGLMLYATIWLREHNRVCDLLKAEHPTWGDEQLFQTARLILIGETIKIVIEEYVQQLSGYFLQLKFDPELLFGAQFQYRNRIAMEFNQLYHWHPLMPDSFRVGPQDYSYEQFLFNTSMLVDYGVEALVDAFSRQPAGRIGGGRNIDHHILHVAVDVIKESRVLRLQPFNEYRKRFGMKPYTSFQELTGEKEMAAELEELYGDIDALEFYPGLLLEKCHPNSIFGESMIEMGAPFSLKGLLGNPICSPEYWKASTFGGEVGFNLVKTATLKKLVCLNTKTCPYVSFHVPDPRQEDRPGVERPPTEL
# [8] = tested on: Bronchial Epithelial Cells; assay: Growth inhibition, SRB assay, bronchial epithelial cells; assay type: cell-based; conditions: Epithelial cell
# Description: A compound's ability to inhibit tumor cell growth can be measured using the HT-29 human colon carcinoma cell line obtained from ATCC. HT-29 cells have previously been characterized as a relevant colon tumor cell culture model (Fogh, J., and Trempe, G. In: Human Tumor Cells in Vitro, J. Fogh (eds.), Plenum Press, New York, pp. 115-159, 1975). HT-29 cells are maintained in RPMI media supplemented with 5% fetal bovine calf serum (Gemini Bioproducts, Inc., Carlsbad, Calif.) and 2 mm glutamine, and 1% antibiotic-antimycotic in a humidified atmosphere of 95% air and 5% CO2 at 37° C. Briefly, HT-29 cells are plated at a density of 500 cells/well in 96 well microtiter plates and incubated for 24 hours at 37° C. prior to the addition of compound. […] After six days in culture, the cells are fixed by the addition of cold trichloroacetic acid to a final concentration of 10% and protein levels are measured using the sulforhodamine B (SRB) colorimetric protein stain assay as previously described by Skehan, P., Storeng, R., Scudiero, D., Monks, A., McMahon, J., Vistica, D., Warren, J. T., Bokesch, H., Kenney, S., and Boyd, M. R., “New Colorimetric Assay For Anticancer-Drug Screening,” J. Natl. Cancer Inst. […]
# To show the effectiveness of this screening method on various forms of neoplasia, compounds were tested on numerous cell lines. […] The IC50 values were determined by the SRB assay. […]
# [9] = tested on: PDE4 purified from human colon HT-29 cultured tumor cells; assay: PDE4 inhibition assay; assay type: biochemical; conditions: HT-29 cell enzyme
# [10] = Safety evaluation in exisulind clinical trials; assay type: in vivo
# Method: In these exisulind trials and several others involving the drug in other indications, safety was evaluated by monitoring adverse events (AEs), clinical laboratory tests (hematology, serum chemistry, and urinalysis), vital signs (blood pressure, pulse rate, respiratory rate, temperature, and weight), physical examination, and upper endoscopy.
smiles,measurement,setting,value
"CC1=C(CC(=O)NCc2ccccc2)c2cc(F)ccc2/C1=C\c1ccncc1 [Compound I, (Z)-5-fluoro-2-methyl-(4-pyridylidene)-3-(N-benzyl)indenylacetamide hydrochloride]",pIC50,[1],6.17
same,GI50,"[2]; Homo sapiens, HCT-15, 120 h",1.7 µM
same,"GI90 μM, HCT-15",[2],3.0 µM
same,DNA fragmentation in PrEC (normal prostate) cells,[3],did not affect DNA fragmentation
same,pEC50,"[4]; SW480, read-out: DNA fragmentation EC50",4.82
same,"signs of toxicity, single dose in capsules",[5]; 1000 mg/kg,no signs of toxicity
same,"drug-related effects, single and seven consecutive doses",[5]; 1000 mg/kg/day,At no time in either dosing phase were any obvious signs of drug-related effects observed
same,GI50,"[6]; Homo sapiens, NCI-H460, 120 h",1.9 µM
same,"GI90 μM, NCI-H460",[6],30.0 µM
same,inhibition at 100 µM,[7],< 25%
"CC1=C(CC(=O)O)c2cc(F)ccc2/C1=C\c1ccc(S(C)(=O)=O)cc1 [Exisulind, 5-fluoro-2-methyl-1-(p-methylsulfonylbenzylidene)-3-indenylacetic acid]",IC50,[8],90 µM
same,"cGMP PDE inhibitory activity, % Inhibition at 10 μM",[1]; 10 μM,39%
same,PDE Inhibition,[1]; qualitative activity profile,++
same,pIC50,[1],4.25
same,pIC50,[9],3.74
same,fold induction at 100 µM,"[4]; SW480, read-out: Apoptosis-inducing activity, Fold induction at 100 μM, 100 μM, cell line not given",< 2
same,apoptosis rates in paired biopsies of polyp and normal colonic tissues,[10]; APC patients,"increased apoptosis rates in polyp, but not normal colonic tissues"
same,toxicities in clinical trials,"[10]; human, in vivo","did not demonstrate any blood dyscrasia, dose-limiting vomiting, or neurological or renal toxicities"
same,maximum tolerated dose (MTD),[10]; patients with intact colons,400 mg
same,maximum tolerated dose (MTD),[10]; patients with subtotal colectomy,600 mg
same,maximum tolerated dose (MTD),[10]; pediatric patients,350 mg
same,COX Inhibition,[7]; qualitative activity profile,−
same,inhibition at 100 µM,[7],< 25%
